Key:
Liver tissue = Liver tissue disaggregation by 1% surfactant with or without Proteinase K at 60° C.; conditions: 60° C., 1% surfactant
Experimental: To evaluate the ability of various cationic surfactants to increase the digestion of tissue by Proteinase K, liver slices were digested using reaction compositions including one of the sixteen surfactants (shown in Table 4), both with and without Proteinase K. The reducing agent dithiothreitol (DTT) was included to evaluate the effect of reducing conditions on tissue digestion. […] One of the sixteen surfactants was added to one pair of tubes to yield a final concentration of 1% surfactant. The seventeenth pair of tubes served as non-surfactant controls. One milligram (mg) of Proteinase K was added to one tube of each of the seventeen pairs.
PK=presence or absence of Proteinase K in the reaction composition; Y=Proteinase K was present; N=Proteinase K was not present in the reaction composition.

[1] = Solubility of 1% cationic surfactants in 5M chaotropic salt solutions containing 2% Tween 20; conditions: 5M chaotropic salts, 2% Tween 20
Text: The solubilities of several cationic surfactants were examined in different chaotropic salt solutions. The cationic surfactants examined were cetyltrimethylammonium bromide (CTAB), cetyltrimethylammonium chloride (CTACl), tetradecyltrimethylammonium bromide (TTAB), tetradecyltrimethylammonium chloride (TTACl), dodecyltrimethylammonium bromide (DTAB), dodecyltrimethylammonium (DTACl), dodecylethyidimethylammonium bromide (DEDTAB), decyltrimethylammonium bromide (D10TAB), and dodecyltriphenylphosphonium bromide (DTPB). Each of the cationic surfactants tested was presented in a 1% concentration. Each of the cationic surfactants was examined in a 5M solution of one of the chaotropic salts containing 2% Tween 20. Each cationic surfactant and salt combination was tested at pH 6 (50 mM MES), pH 8 (50 mM Tris-HCl), and pH 10 (50 mM AMP).

Calf thymus DNA = test: Effect of DTAB on DNA recovery when added before, during, and after DNA binding to GF/B; conditions: pretreatment with 5M salt with 1% DTAB (D+) versus without (D−)
Experimental: The inhibitory effect of the cationic surfactant, DTAB, was further examined. DTAB was introduced at various points of the purification reaction, before DNA binding, during binding, or after DNA binding has occurred on the solid phase. DNA binding and purification procedures were carried out using GF/B glass fiber filters (in a 96-well format) on the ABI PRISM 6100.
In set A, the GF/B membrane was pretreated with 100 μl of liquid lacking (A−) or containing (A+) 1% DTAB. Calf thymus DNA (8 μg) was then bound in 800 μL of 50 mM MES, pH 6.0, 20 mM EDTA, and 5 M salt (either NaBr or GUSCN).
In set B, the membranes were not prewashed. Calf thymus DNA (8 μg) was bound to GF/B glass fiber filters in 800 μl of 50 mM MES, pH, 6.0, 20 mM EDTA, and 5 M salt (either NaBr or GuSCN). Following binding, the membranes were washed in 50 mM MES, pH 6.0, 20 mM EDTA and 5 M salt (either NaBr or GuSCN) either lacking (B−) or containing (B+) 1% DTAB.
In set C, the membranes were not prewashed. Calf thymus DNA (8 μg) was bound to GF/B glass fiber filters in 800 μl of 50 mM MES, pH 6.0, 20 mM EDTA, and 5 M salt (either NaBr or GUSCN) either lacking (C−) or containing (C+) 1% DTAB.
In set D, the GF/B membrane was pretreated with 100 μl of 5 M salt (either NaBr or GuSCN) lacking (A−) or containing (A+) 1% DTAB. […]

[2] = Solubility of surfactants (0.5% Sarkosyl, LDS, SDS, CTAB; 5.0% others) in salt solutions
Experimental: In certain instances, the solubility of detergents in high salt may relate to on the composition of the salt and the detergent itself. A mixing experiment was performed to examine the solubility of a variety of anionic, cationic, and nonionic surfactants in different salt compositions. […] The salt solutions contained Lil, Nal, KI, Rbl, Csl , GuSCN, GuHCl, or NaClO4, at pH 6.0 or 10.0. […] The solubility of the surfactants was scored as either soluble or insoluble. The solubility of the surfactant in the salt solution was determined initially by visual observations for cloudiness or precipitate formation. The resulting solutions were also centrifuged to verify the absence of a precipitate by the absence of a precipitate pellet.

Calf thymus genomic DNA = test: Reversal by Tween 20 of DTAB inhibition of DNA recovery from GF/B
Experimental: Having identified the cationic surfactant as a major component inhibiting DNA recovery, the ability of a nonionic surfactant to reverse the inhibitory effect was examined. Calf thymus genomic DNA (8 μg) was bound to the glass fiber GF/B membrane in the presence of 0%, 1% and 4% dodecyltrimethylammonium bromide (DTAB) with increasing concentrations of Tween 20.
The binding buffer also contained 5M GuSCN, 20 mM EDTA, and 50 mM MES (pH 6.0). DNA was first eluted with 200 μl of TE followed by a separate elution with 100 μl of 0.1N NaOH. All binding and elution steps were done at ambient temperature.

[3] = tested on: cationic surfactant: nucleic acid precipitate; test: Solubilizing the cationic surfactant: nucleic acid precipitate (calf thymus DNA + 1% CTAB); conditions: Calf thymus DNA 700 μg/ml, 100 mM Tris, pH 8, additive at final concentration
Experimental: Calf thymus DNA (Sigma; 700 μg/ml lightly sheared using an 18 gauge hypodermic needle) was mixed with 1% CTAB in 100 mM Tris, pH 8 to form a reaction composition.

| Compound | Tissue Disaggregation (Liver tissue; Fifteen Minutes Incubation, Proteinase K not present (N)) | Tissue Disaggregation (Liver tissue; Fifteen Minutes Incubation, Proteinase K present (Y)) | Tissue Disaggregation (Liver tissue; Fifty-Two Minutes Incubation, Proteinase K not present (N)) | Tissue Disaggregation (Liver tissue; Fifty-Two Minutes Incubation, Proteinase K present (Y)) | relative solubility in chaotropic salt solutions (in words) [1] | subsequent binding of nucleic acid to GF/B (Calf thymus DNA) | Solubility of surfactant ([2]; 4 M GuHCl, Urea, pH 6.0) | Solubility of surfactant ([2]; 4 M GuHCl, Urea, pH 10.0) | Solubility of surfactant ([2]; 4 M KI, Urea, pH 6.0) | Solubility of surfactant ([2]; 4 M KI, Urea, pH 10.0) | Solubility of surfactant ([2]; 6 M GuHCl, pH 6.0) | Solubility of surfactant ([2]; 6 M GuHCl, pH 10.0) | Solubility of surfactant ([2]; 6 M NaI, pH 10.0) | concentration at which the amount of DNA recovered increased significantly (Calf thymus genomic DNA; 0% DTAB, FIG. 21) | concentration that substantially blocked the inhibitory effect of the cationic surfactant (Calf thymus genomic DNA; 1% DTAB, FIG. 22) | concentration that substantially blocked the inhibitory effect of the cationic surfactant (Calf thymus genomic DNA; 4% DTAB, FIG. 23) | Result (solubilization of the CTAB: nucleic acid precipitate) [3] |
| --- | --- | --- | --- | --- | --- | --- | --- | --- | --- | --- | --- | --- | --- | --- | --- | --- | --- |
| CCCCCCCCCCCC[N+](C)(C)C.[Br-] [DTAB, dodecyltrimethylammonium bromide] | 0 | 2 | 0 | 3 | more soluble than larger surfactants | did not appear to influence subsequent binding of nucleic acid |  |  |  |  |  |  |  |  |  |  |  |
| polyoxyethylenesorbitan monolaurate [Tween 20] |  |  |  |  |  |  | S | S | S | S | S | S | S | at least 1% | at least 2% | at least 4% | neither NaCl nor Tween 20, used alone, solubilized the precipitate |
